# Results as given in ChEMBL document CHEMBL3797052 (Eur J Med Chem, 2016).
# Tests used:
# [1] = Antiproliferative activity against human OVCAR8 cells assessed as growth inhibition after 48 hrs by sulforhodamine B assay; assay type: functional; conditions: OVCAR-8, 48 h
# [2] = Antiproliferative activity against human OVCAR4 cells assessed as growth inhibition after 48 hrs by sulforhodamine B assay; assay type: functional; conditions: OVCAR-4, 48 h
# [3] = Antiproliferative activity against human RPMI8226 cells assessed as cell growth at 10^-7 M after 48 hrs by sulforhodamine B assay; assay type: functional; conditions: RPMI-8226, 48 h, read-out: Activity
# [4] = test system: HT-29; test: Antiproliferative activity against human HT-29 cells assessed as cell growth at 10^-7 M after 48 hrs by sulforhodamine B assay; assay type: functional; conditions: HT-29, 48 h, read-out: Activity
# [5] = Antiproliferative activity against human SF268 cells assessed as cell growth at 10^-7 M after 48 hrs by sulforhodamine B assay; assay type: functional; conditions: SF-268, 48 h, read-out: Activity
# [6] = Antiproliferative activity against human SNB75 cells assessed as cell growth at 10^-7 M after 48 hrs by sulforhodamine B assay; assay type: functional; conditions: SNB-75, 48 h, read-out: Activity
# [7] = Antiproliferative activity against human UACC62 cells assessed as growth inhibition after 48 hrs by sulforhodamine B assay; assay type: functional; conditions: UACC-62, 48 h; for CC50: read-out: LC50 (the source's name)
# [8] = Antiproliferative activity against human LOXIMVI cells assessed as growth inhibition after 48 hrs by sulforhodamine B assay; assay type: functional; conditions: LOX IMVI; for CC50: read-out: LC50 (the source's name)
# [9] = test system: SK-MEL-2; test: Antiproliferative activity against human SK-MEL-2 cells assessed as cell growth at 10^-7 M after 48 hrs by sulforhodamine B assay; assay type: functional; conditions: SK-MEL-2, 48 h, read-out: Activity
# [10] = Antiproliferative activity against human Caki1 cells assessed as cell growth at 10^-7 M after 48 hrs by sulforhodamine B assay; assay type: functional; conditions: CAKI-1, 48 h, read-out: Activity
# [11] = Antiproliferative activity against human SF539 cells assessed as growth inhibition after 48 hrs by sulforhodamine B assay; assay type: functional; conditions: SF-539, 48 h
# [12] = test system: NCI-H522; test: Antiproliferative activity against human NCI-H522 cells assessed as growth inhibition after 48 hrs by sulforhodamine B assay; assay type: functional; conditions: NCI-H522, 48 h
# [13] = test system: A549; test: Antiproliferative activity against human A549/ATCC cells assessed as growth inhibition after 48 hrs by sulforhodamine B assay; assay type: functional; conditions: A549, 48 h
# [14] = test system: CCRF-CEM; test: Antiproliferative activity against human CCRF-CEM cells assessed as growth inhibition after 48 hrs by sulforhodamine B assay; assay type: functional; conditions: for CC50: read-out: LC50 (the source's name)
# [15] = Antiproliferative activity against human Hs 578T cells assessed as growth inhibition after 48 hrs by sulforhodamine B assay; assay type: functional; conditions: for CC50: read-out: LC50 (the source's name)
# [16] = biological target: hERG (KCNH2) (Homo sapiens, UniProt Q12809); test: Inhibition of human ERG assessed as reduction in channel current at 100 uM by automated patch-clamp electrophysiology assay
# Sequence of hERG (KCNH2) (Q12809 whole entry): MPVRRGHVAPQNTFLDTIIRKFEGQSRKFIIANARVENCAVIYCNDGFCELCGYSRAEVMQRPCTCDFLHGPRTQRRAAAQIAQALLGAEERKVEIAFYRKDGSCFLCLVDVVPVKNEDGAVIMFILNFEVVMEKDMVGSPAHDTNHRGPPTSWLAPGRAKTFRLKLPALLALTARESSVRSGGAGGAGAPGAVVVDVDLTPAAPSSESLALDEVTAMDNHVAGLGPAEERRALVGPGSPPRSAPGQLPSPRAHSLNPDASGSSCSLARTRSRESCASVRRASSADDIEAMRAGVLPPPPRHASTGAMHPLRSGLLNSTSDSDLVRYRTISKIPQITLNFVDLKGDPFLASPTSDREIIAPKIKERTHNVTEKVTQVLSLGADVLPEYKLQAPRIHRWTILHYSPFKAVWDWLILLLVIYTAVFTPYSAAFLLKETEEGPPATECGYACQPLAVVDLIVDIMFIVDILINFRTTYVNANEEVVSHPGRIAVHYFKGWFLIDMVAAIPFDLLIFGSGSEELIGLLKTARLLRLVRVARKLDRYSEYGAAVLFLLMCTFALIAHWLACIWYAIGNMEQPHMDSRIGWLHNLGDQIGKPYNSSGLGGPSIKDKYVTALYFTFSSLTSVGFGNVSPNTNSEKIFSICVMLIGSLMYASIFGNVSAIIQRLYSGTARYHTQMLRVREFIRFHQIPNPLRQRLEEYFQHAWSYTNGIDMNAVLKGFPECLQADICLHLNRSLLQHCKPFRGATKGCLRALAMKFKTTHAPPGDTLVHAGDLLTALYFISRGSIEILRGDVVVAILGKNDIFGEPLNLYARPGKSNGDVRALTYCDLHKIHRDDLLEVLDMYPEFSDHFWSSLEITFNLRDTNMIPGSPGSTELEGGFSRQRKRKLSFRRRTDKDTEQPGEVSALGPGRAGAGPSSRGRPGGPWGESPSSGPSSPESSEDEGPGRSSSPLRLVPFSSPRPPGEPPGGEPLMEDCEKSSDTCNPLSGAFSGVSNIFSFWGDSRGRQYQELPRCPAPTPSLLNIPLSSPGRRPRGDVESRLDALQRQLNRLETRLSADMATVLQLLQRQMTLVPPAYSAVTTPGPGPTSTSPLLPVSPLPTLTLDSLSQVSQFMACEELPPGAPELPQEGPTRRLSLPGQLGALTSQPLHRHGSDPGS
# [17] = test system: EKVX; test: Antiproliferative activity against human EKVX cells assessed as cell growth at 10^-8 M after 48 hrs by sulforhodamine B assay; assay type: functional; conditions: read-out: Activity
# [18] = Antiproliferative activity against human HCT116 cells assessed as cell growth at 10^-8 M after 48 hrs by sulforhodamine B assay; assay type: functional; conditions: HCT-116, 48 h, read-out: Activity
# [19] = Antiproliferative activity against human RPMI8226 cells assessed as cell growth at 10^-6 M after 48 hrs by sulforhodamine B assay; assay type: functional; conditions: RPMI-8226, 48 h, read-out: Activity
# [20] = test system: NCI-H460; test: Antiproliferative activity against human NCI-H460 cells assessed as cell growth at 10^-6 M after 48 hrs by sulforhodamine B assay; assay type: functional; conditions: NCI-H460, 48 h, read-out: Activity
# [21] = Antiproliferative activity against human HCT116 cells assessed as cell growth at 10^-6 M after 48 hrs by sulforhodamine B assay; assay type: functional; conditions: HCT-116, 48 h, read-out: Activity
# [22] = Antiproliferative activity against human SF268 cells assessed as cell growth at 10^-6 M after 48 hrs by sulforhodamine B assay; assay type: functional; conditions: SF-268, 48 h, read-out: Activity
# [23] = Antiproliferative activity against human SNB19 cells assessed as cell growth at 10^-6 M after 48 hrs by sulforhodamine B assay; assay type: functional; conditions: SNB-19, 48 h, read-out: Activity
# [24] = test system: NCI-H522; test: Antiproliferative activity against human NCI-H522 cells assessed as cell growth at 10^-4 M after 48 hrs by sulforhodamine B assay; assay type: functional; conditions: NCI-H522, 48 h, read-out: Activity
# [25] = Antiproliferative activity against human COLO205 cells assessed as cell growth at 10^-4 M after 48 hrs by sulforhodamine B assay; assay type: functional; conditions: COLO 205, 48 h, read-out: Activity
# [26] = Antiproliferative activity against human SF295 cells assessed as cell growth at 10^-4 M after 48 hrs by sulforhodamine B assay; assay type: functional; conditions: SF-295, 48 h, read-out: Activity
# [27] = Antiproliferative activity against human SNB75 cells assessed as cell growth at 10^-4 M after 48 hrs by sulforhodamine B assay; assay type: functional; conditions: SNB-75, 48 h, read-out: Activity
# [28] = test system: MDA-MB-435; test: Antiproliferative activity against human MDA-MB-435 cells assessed as cell growth at 10^-8 M after 48 hrs by sulforhodamine B assay; assay type: functional; conditions: MDA-MB-435, 48 h, read-out: Activity
# [29] = test system: SK-MEL-2; test: Antiproliferative activity against human SK-MEL-2 cells assessed as cell growth at 10^-8 M after 48 hrs by sulforhodamine B assay; assay type: functional; conditions: SK-MEL-2, 48 h, read-out: Activity
# [30] = test system: SK-MEL-28; test: Antiproliferative activity against human SK-MEL-28 cells assessed as cell growth at 10^-8 M after 48 hrs by sulforhodamine B assay; assay type: functional; conditions: SK-MEL-28, 48 h, read-out: Activity
# [31] = Antiproliferative activity against human IGROV1 cells assessed as cell growth at 10^-8 M after 48 hrs by sulforhodamine B assay; assay type: functional; conditions: IGROV-1, 48 h, read-out: Activity
# [32] = Antiproliferative activity against human OVCAR8 cells assessed as cell growth at 10^-8 M after 48 hrs by sulforhodamine B assay; assay type: functional; conditions: OVCAR-8, 48 h, read-out: Activity
# [33] = test system: 786-0; test: Antiproliferative activity against human 786-0 cells assessed as cell growth at 10^-8 M after 48 hrs by sulforhodamine B assay; assay type: functional; conditions: 786-0, 48 h, read-out: Activity
# [34] = Antiproliferative activity against human Caki1 cells assessed as cell growth at 10^-8 M after 48 hrs by sulforhodamine B assay; assay type: functional; conditions: CAKI-1, 48 h, read-out: Activity
# [35] = Antiproliferative activity against human OVCAR4 cells assessed as cell growth at 10^-6 M after 48 hrs by sulforhodamine B assay; assay type: functional; conditions: OVCAR-4, 48 h, read-out: Activity
# [36] = Antiproliferative activity against human PC3 cells assessed as cell growth at 10^-4 M after 48 hrs by sulforhodamine B assay; assay type: functional; conditions: PC-3, 48 h, read-out: Activity
# [37] = read-out: LC50 (the source's name)
smiles,measurement,setting,value
CNC(=O)c1cc(Oc2ccc3nc(NC(=O)Nc4ccc(Cl)c(C(F)(F)F)c4)sc3c2)ccn1,GI50,[1],2.34 µM
same,LC50,[1],> 100 µM
same,TGI,[1],5.25 µM
same,GI50,[2],1.59 µM
same,TGI,[2],3.31 µM
same,growth at 0.1 µM,[3],101%
same,growth at 0.1 µM,[4],103%
same,growth at 0.1 µM,[5],101%
same,growth at 0.1 µM,[6],81%
same,GI50,[7],2.06 µM
same,CC50,[7],> 100 µM
same,GI50,[8],2.68 µM
same,TGI,[8],> 100 µM
same,CC50,[8],> 100 µM
same,growth at 0.1 µM,[9],99%
same,growth at 0.1 µM,[10],93%
same,GI50,[11],1.78 µM
same,TGI,[11],3.9 µM
same,GI50,[12],2.54 µM
same,LC50 (concentration killing 50% of cells),[12],> 100 µM
same,TGI,[12],> 100 µM
same,GI50,[13],1.93 µM
same,CC50,[13]; [37],> 100 µM
same,TGI,[14],> 100 µM
same,CC50,[14],> 100 µM
same,GI50,[15],1.53 µM
same,TGI,[15],6.27 µM
same,CC50,[15],> 100 µM
same,inhibition at 100 µM,[16],26.2%
same,growth at 0.01 µM,[17],97%
same,growth at 0.01 µM,[18],101%
same,growth at 1 µM,[19],82%
same,growth at 1 µM,[20],86%
same,growth at 1 µM,[21],80%
same,growth at 1 µM,[22],78%
same,growth at 1 µM,[23],85%
same,growth at 100 µM,[24],23%
same,growth at 100 µM,[25],53%
same,growth at 100 µM,[26],-82%
same,growth at 100 µM,[27],-80%
same,growth at 0.01 µM,[28],91%
same,growth at 0.01 µM,[29],103%
same,growth at 0.01 µM,[30],92%
same,growth at 0.01 µM,[31],102%
same,growth at 0.01 µM,[32],105%
same,growth at 0.01 µM,[33],97%
same,growth at 0.01 µM,[34],87%
same,growth at 1 µM,[35],82%
same,growth at 100 µM,[36],7%
CNC(=O)c1cc(Oc2ccc3nc(NC(=O)Nc4ccc(Cl)c(Cl)c4)sc3c2)ccn1,GI50,[1],2.36 µM
same,LC50,[1],73.9 µM
same,TGI,[1],5.27 µM
same,GI50,[2],2.06 µM
same,TGI,[2],4.03 µM
same,CC50,[2]; [37],7.89 µM
same,growth at 0.1 µM,[3],107%
same,growth at 0.1 µM,[4],105%
same,growth at 0.1 µM,[5],99%
same,growth at 0.1 µM,[6],83%
same,GI50,[7],2.32 µM
same,TGI,[7],7.76 µM
same,CC50,[7],> 100 µM
same,GI50,[8],1.82 µM
same,TGI,[8],3.52 µM
same,CC50,[8],6.82 µM
same,growth at 0.1 µM,[9],118%
same,growth at 0.1 µM,[10],99%
same,GI50,[11],2.17 µM
same,LC50,[11],11.1 µM
same,TGI,[11],4.69 µM
same,GI50,[12],4.09 µM
same,LC50 (concentration killing 50% of cells),[12],> 100 µM
same,TGI,[12],> 100 µM
same,GI50,[13],1.89 µM
same,TGI,[13],3.99 µM
same,GI50,[14],> 100 µM
same,TGI,[14],> 100 µM
same,CC50,[14],> 100 µM
same,GI50,[15],2.77 µM
same,TGI,[15],6.66 µM
same,CC50,[15],> 100 µM
same,inhibition at 100 µM,[16],47.9%
same,growth at 0.01 µM,[17],89%
same,growth at 0.01 µM,[18],94%
same,growth at 1 µM,[19],103%
same,growth at 1 µM,[20],107%
same,growth at 1 µM,[21],88%
same,growth at 1 µM,[22],95%
same,growth at 1 µM,[23],100%
same,growth at 100 µM,[24],23%
same,growth at 100 µM,[25],26%
same,growth at 100 µM,[26],-74%
same,growth at 100 µM,[27],-75%
same,growth at 0.01 µM,[28],89%
same,growth at 0.01 µM,[29],115%
same,growth at 0.01 µM,[30],95%
same,growth at 0.01 µM,[31],99%
same,growth at 0.01 µM,[32],103%
same,growth at 0.01 µM,[33],95%
same,growth at 0.01 µM,[34],92%
same,growth at 1 µM,[35],104%
same,growth at 100 µM,[36],-50%
